Assay results reported in US8158621B2, “Methods of treating or preventing autoimmune diseases with 2,4-pyrimidinediamine compounds” (Rigel Pharmaceuticals, Inc., priority 2002, dated 2012).

Test system: Human Jurkat T-cells (clone N)
Assay: Jurkat T-cell activation (anti-TCR, CD69 upregulation)
Assay type: cell-based
Settings: not given
Procedure, shortened: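 Readout is CD69 upregulation by flow cytometry (anti-CD69-APC, 20 min at 4 °C) after 20 h anti-TCR (C305, 500 ng/ml) stimulation at 37 °C.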

Point of comparison: `O=C(CNc1cccc(Nc2ncc(F)c(Nc3cccc(O)c3)n2)c1)NCCN1CCOCC1` [Compound R950226], IC50 2.92 µM. Against it:
- CNC(=O)COc1cccc(Nc2ncc(F)c(Nc3ccc(Cl)c(-c4nc5ccccc5s4)c3)n2)c1 [Compound R926900] — higher, > 10 µM
- COc1ccc(Nc2nc(NC3CCN(Cc4ccccc4)CC3)ncc2F)cc1OC [Compound R940263] — 3.5-fold higher, 10.1 µM
- O=C(c1cccc(Nc2ncc(F)c(Nc3cccc(O)c3)n2)c1)N1CCOCC1 [Compound R926938] — higher, > 10 µM
- CNC(=O)CCn1ncc2cc(Nc3ncc(F)c(Nc4ccc(OC(C)C)cc4)n3)ccc21 [Compound R935310] — 3.3-fold lower, 0.88 µM
- CCNC(=O)Oc1cccc(Nc2nc(Nc3cccc(OCC(=O)NC)c3)ncc2F)c1 [Compound R926919] — higher, > 10 µM
- CCOC(=O)COc1cccc(Nc2ncc(F)c(Nc3ccc(O)c(C(=O)O)c3)n2)c1 [Compound R950290] — higher, > 10 µM
- CNC(=O)CNc1cccc(Nc2ncc(F)c(Nc3ccc4c(c3)OCCO4)n2)c1 [Compound R950191] — within 1.5-fold, 2.59 µM
- CC1(C)Oc2ccc(Nc3nc(Cl)ncc3F)cc2NC1=O [Compound R940322] — 1.6-fold higher, 4.57 µM
- O=C(O)COc1cccc(Nc2ncc(F)c(Nc3cccc(O)c3)n2)c1 [Compound R945126] — higher, > 10 µM
- O=C(O)COc1cccc(Nc2ncc(F)c(Nc3ccc4c(c3)OCCO4)n2)c1 [Compound R926483] — higher, > 10 µM
- CCOC(=O)c1cnc(Nc2ccc3c(c2)NC(=O)CO3)nc1Nc1ccc2c(c1)NC(=O)CO2 [Compound R926325] — higher, > 10 µM
- COC(=O)COc1cc(Nc2ncc(F)c(Nc3cccc(O)c3)n2)cc(OCC(=O)OC)c1 [Compound R926926] — 4.5-fold higher, 13.1 µM
- CNC(=O)COc1cccc(Nc2ncc(F)c(Nc3cc(OC)c(Cl)cc3OC)n2)c1 [Compound R926859] — higher, > 10 µM
- Cc1noc(COc2ccc(Nc3nc(Nc4cccc(O)c4)ncc3F)cc2)n1 [Compound R935147] — within 1.5-fold, 1.98 µM
- CNC(=O)COc1cccc(Nc2ncc(F)c(Nc3cccc(N(C)C)c3)n2)c1 [Compound R950264] — within 1.5-fold, 1.99 µM
- CNC(=O)COc1cccc(Nc2ncc(F)c(Nc3ccc4c(c3)N(C)C(=O)CO4)n2)c1 [Compound R909260] — within 1.5-fold, 3.33 µM
- CNC(=O)COc1cccc(Nc2ncc(F)c(Nc3cccc(C(C)=O)c3)n2)c1 [Compound R950371] — 2.7-fold lower, 1.1 µM
- COC(=O)COc1ccc(Nc2ccnc(Nc3ccc(OCC(=O)OC)cc3)n2)cc1 [Compound R926256] — higher, > 10 µM
- N#CCOc1ccc(Nc2nc(Nc3ccc(OCC(=O)O)cc3)ncc2F)cc1 [Compound R945097] — higher, > 10 µM
- CN1CCN(C(=O)CNc2cccc(Nc3ncc(F)c(Nc4ccc5c(c4)OCCO5)n3)c2)CC1 [Compound R950194] — 1.8-fold higher, 5.13 µM
- COC(=O)c1cc2cc(Nc3ncc(F)c(Nc4ccc5cnn(CCC(=O)O)c5c4)n3)ccc2o1 [Compound R935296] — higher, > 10 µM
- CCOC(=O)COc1cccc(Nc2ncc(F)c(Nc3ccc4c(c3)NCCO4)n2)c1 [Compound R909242] — within 1.5-fold, 3.8 µM
- NC(=O)CNc1cccc(Nc2ncc(F)c(Nc3ccc4c(c3)OCCO4)n2)c1 [Compound R950192] — 1.7-fold lower, 1.73 µM
- Fc1cnc(NCc2ccc3c(c2)OCO3)nc1NCc1ccc2c(c1)OCO2 [Compound R925770] — higher, > 10 µM
- CC(C)(C)OC(=O)COc1ccc(Nc2nc(Cl)c(Cl)c(Nc3ccc(OCC(=O)OC(C)(C)C)cc3)n2)cc1 [Compound R926576] — higher, > 10 µM
- COc1cccc(Nc2nc(Nc3cccc(OCC(=O)NCC(O)CO)c3)ncc2F)c1 (stereo not drawn) [Compound R926739] — within 1.5-fold, 2.09 µM
- CNC(=O)COc1cccc(Nc2ncc(F)c(Nc3ccc4c(c3)-n3ccnc3CO4)n2)c1 [Compound R935271] — 3.4-fold lower, 0.858 µM
- OCCCn1ncc2ccc(Nc3ncc(F)c(Nc4ccc5c(c4)OCCO5)n3)cc21 [Compound R935287] — 1.7-fold lower, 1.7 µM
- CNCCNC(=O)CNc1cccc(Nc2ncc(F)c(Nc3ccc4c(c3)OCCO4)n2)c1 [Compound R950196] — within 1.5-fold, 2.08 µM
- CCOC(=O)c1cnc(Nc2cccc(OCC(=O)NC)c2)nc1Nc1ccc2c(c1)OCCO2 [Compound R926800] — higher, > 10 µM
- COc1c(C)cc(Nc2nc(Nc3cccc(OCC(=O)N4CCNCC4)c3)ncc2F)cc1C [Compound R945156] — within 1.5-fold, 2.29 µM
- O=C1OCc2ccc(Nc3ncc(F)c(Nc4ccc5c(c4)OCCO5)n3)cc21 [Compound R926786] — 2.5-fold higher, 7.36 µM
- O=C(CNc1cccc(Nc2ncc(F)c(Nc3ccc4c(c3)OCCO4)n2)c1)N1CCNCC1 [Compound R950197] — within 1.5-fold, 2.58 µM
- Cc1cnc(Nc2ccc(OCc3nnn(C)n3)cc2)nc1Nc1cccc(O)c1 [Compound R920893] — 2.1-fold lower, 1.4 µM
- CNC(=O)c1cc2cccc(Nc3ncc(F)c(Nc4ccc5c(c4)OCCO5)n3)c2[nH]1 [Compound R926815] — higher, > 10 µM

Same assay, conditions: Homo sapiens

Point of comparison: `O=[N+]([O-])c1ccc(F)c(Nc2ncc(F)c(Nc3cc([N+](=O)[O-])ccc3F)n2)c1` [Compound R950147], IC50 14.8 µM. Against it:
- O=[N+]([O-])c1cc(Nc2ncc(F)c(Nc3ccc(F)c([N+](=O)[O-])c3)n2)ccc1F [Compound R950148] — not separable, > 10 µM

Same assay, conditions: Homo sapiens, Jurkat

Point of comparison: `CCOC(=O)CNc1nc(NCC(=O)OCC)c([N+](=O)[O-])c(C(=O)OCC)n1` [Compound R925864], IC50 19.1 µM. Against it:
- CCOC(=O)Cc1ccc(Nc2ncc(C#N)c(Nc3ccc(CC(=O)OCC)cc3)n2)cc1 [Compound R926662] — not separable, > 10 µM
- Fc1cnc(Nc2cccc(Cl)c2)nc1Nc1cccc(Cl)c1 [Compound R926209] — not separable, > 10 µM
- COc1ccc(Nc2ncc(F)c(Nc3ccc(OC)c(C(=O)O)c3)n2)cc1C(=O)O [Compound R945067] — not separable, > 10 µM
- Oc1ccc(Nc2ncc(F)c(Nc3ccc(O)cc3F)n2)c(F)c1 [Compound R926683] — 2.5-fold lower, 7.63 µM
- Fc1cnc(NCc2csc3ccccc23)nc1NCc1csc2ccccc12 [Compound R945145] — not separable, > 10 µM
- CCOC(=O)C(C)(C)c1ccc(Nc2nc(Nc3ccc4c(c3)OCCO4)ncc2F)cc1 [Compound R935172] — not separable, > 10 µM
- Clc1ccc(-c2cnc(Nc3ccc4c(c3)OCCO4)nc2Nc2ccc3c(c2)OCCO3)cc1 [Compound R925786] — not separable, > 10 µM
- COC(=O)c1cc2cc(Nc3ncc(F)c(Nc4cccc(OC(C)C)c4)n3)ccc2o1 [Compound R926487] — 2.6-fold higher, 48.9 µM
- Fc1cnc(Nc2cccnc2)nc1Nc1ccc2c(c1)OCCO2 [Compound R920668] — not separable, > 10 µM
- Fc1cc(Nc2ncc(F)c(Nc3ccc(C(F)(F)F)c(F)c3)n2)ccc1C(F)(F)F [Compound R926018] — not separable, > 10 µM
- COc1cc(-c2ccccc2)c(C)cc1Nc1ccnc(Nc2cc(C)c(-c3ccccc3)cc2OC)n1 [Compound R925808] — not separable, > 10 µM
- Cc1cnc(NCCc2ccc(O)cc2)nc1NCCc1ccc(O)cc1 [Compound R926397] — 1.5-fold lower, 12.5 µM
- Oc1cccc(Nc2ncc(F)c(Nc3cccc(OC(F)(F)F)c3)n2)c1 [Compound R926885] — not separable, > 10 µM
- Nc1cc(Cl)cc(Nc2ccnc(Nc3cc(N)cc(Cl)c3)n2)c1 [Compound R950133] — 4.1-fold lower, 4.7 µM
- COc1cc(Nc2nc(Nc3cccc(O)c3)ncc2F)cc(OC)c1 [Compound R926802] — 3.2-fold lower, 5.91 µM
- CCOC(=O)Nc1ccc(Nc2ncc(F)c(Nc3ccc(NC(=O)OCC)c(O)c3)n2)cc1O [Compound R926340] — not separable, > 10 µM
- C=CCNc1ncc(Br)c(Nc2cccc(O)c2)n1 [Compound R925822] — not separable, > 10 µM
- CC(=O)c1cccc(Nc2ncc(F)c(Nc3cccc(C(C)=O)c3)n2)c1 [Compound R950376] — within 1.5-fold, 18.1 µM
